This note sets out measurements from publication PMC11873037 (Nature Communications, 2025).

One series addresses T1, ChREBPα (Rattus norvegicus, UniProt Q8VIP2).
T1 sequence (Q8VIP2 1-865): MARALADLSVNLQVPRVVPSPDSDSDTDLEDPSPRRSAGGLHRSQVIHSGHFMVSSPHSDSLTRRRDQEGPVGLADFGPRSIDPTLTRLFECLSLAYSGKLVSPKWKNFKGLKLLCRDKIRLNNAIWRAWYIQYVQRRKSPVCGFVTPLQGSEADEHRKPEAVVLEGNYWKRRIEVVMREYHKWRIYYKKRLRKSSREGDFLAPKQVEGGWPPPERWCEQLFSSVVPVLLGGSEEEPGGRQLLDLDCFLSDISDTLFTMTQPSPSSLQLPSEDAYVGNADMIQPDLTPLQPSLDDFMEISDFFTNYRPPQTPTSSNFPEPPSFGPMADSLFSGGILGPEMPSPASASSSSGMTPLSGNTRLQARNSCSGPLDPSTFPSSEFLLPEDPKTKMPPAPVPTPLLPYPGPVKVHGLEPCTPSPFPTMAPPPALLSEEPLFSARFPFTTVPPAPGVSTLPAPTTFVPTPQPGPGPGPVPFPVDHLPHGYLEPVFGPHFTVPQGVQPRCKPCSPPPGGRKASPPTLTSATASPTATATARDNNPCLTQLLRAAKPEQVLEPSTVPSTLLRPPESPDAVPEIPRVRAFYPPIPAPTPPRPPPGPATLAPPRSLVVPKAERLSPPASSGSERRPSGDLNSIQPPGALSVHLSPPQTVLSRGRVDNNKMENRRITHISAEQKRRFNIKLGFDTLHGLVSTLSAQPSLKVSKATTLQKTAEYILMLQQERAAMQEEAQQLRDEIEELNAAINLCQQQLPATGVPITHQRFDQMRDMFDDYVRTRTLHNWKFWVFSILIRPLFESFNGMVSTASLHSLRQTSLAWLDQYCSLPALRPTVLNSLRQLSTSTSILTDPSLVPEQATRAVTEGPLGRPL
In words: immunostaining, nuclear localization of ChREBPα in INS-1 cells. In kind it is cell-based.

The target in series [1] is T2, ChREBPα/14-3-3β (Homo sapiens, UniProt P31946+Q9NP71).
T2 sequence (P31946 1-246): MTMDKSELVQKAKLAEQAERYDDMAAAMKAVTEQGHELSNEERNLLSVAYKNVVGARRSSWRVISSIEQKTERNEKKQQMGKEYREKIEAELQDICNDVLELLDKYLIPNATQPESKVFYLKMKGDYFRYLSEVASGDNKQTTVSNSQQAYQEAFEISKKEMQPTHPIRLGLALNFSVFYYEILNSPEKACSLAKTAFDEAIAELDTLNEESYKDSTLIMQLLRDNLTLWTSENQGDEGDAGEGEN
T2 sequence (Q9NP71 117-142 limits assumed): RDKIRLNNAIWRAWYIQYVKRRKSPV
In words: FA compound titration, stabilization of FITC-ChREBPα peptide/14-3-3β. The note with it: for EC50: EC50, FITC-ChREBPα peptide 10 nM, 14-3-3β 150 nM, mean ± SD, n = 2; for stabilization of the ChREBPα/14-3-3 PPI, in words: FA-based compound titrations. Format: binding.

Series [2] relates to INS-1 cells. In words: cell death in glucolipotoxic conditions. Format: cell-based, rat. The note with it: for cell death in glucolipotoxic conditions, dose response: 5 and 10 μM, 20 mM glucose+500 µM palmitate, 48 h.
Series [3] has as its system INS-1 cells. In words: cytotoxicity in low glucose. In kind it is cell-based, rat.
Series [4] has as its system INS-1 cells. In words: kinetics of cell proliferation, total cell numbers. The note with it: 10 μM 43. In kind it is cell-based, rat.
For series [5], the system named is primary human islets. In words: glucose-stimulated insulin secretion. The note with it: pre-treated 24 h, high glucose. In kind it is cell-based.
For series [6], the system named is ChREBPα/all seven 14-3-3 isoforms. In words: FA protein titrations, statement over all seven 14-3-3 isoforms. Format: binding. The settings on record: 100 µM 43.
The test system of the next series is ChREBPα/14-3-3. In words: proximity ligation assay ChREBPα and pan 14-3-3. Format: cell-based, rat. The settings on record: high (20 mM) glucose.
Series [7] has as its system TAZ, ExoS, ERα, CRAF, ChREBP peptides/14-3-3 isoforms (γ, ζ, σ). In kind it is binding. The note with it: 100 µM 43.
In series [8] the test system is BRAF, CRAF, p65, USP8, ERα, Pin1, ExoS peptides/14-3-3β. In words: FA selectivity studies, statement over all other client peptides. Format: binding. The settings on record: up to 100 µM.
The next series deals with human islets, β-cells. In words: SPARKL assay, β-cell death in glucolipotoxicity. Format: cell-based. The note with it: 10 µM; 20 mM glucose+500 μM palmitate.
Series [9] deals with INS-1 cells. In words: calcium imaging. In kind it is cell-based, rat.
For series [10], the target named is T2, ChREBPα/14-3-3β. In words: biochemical.
Series [11] concerns PDX1. In words: qPCR PDX1 mRNA in human islets. The note with it: 10 µM 43, 24 h. Format: cell-based. For orientation: In qPCR the cycle at which signal appears reflects the starting amount.
In a further series the target is T3, ChREBP (Rattus norvegicus, UniProt Q8VIP2).
T3 sequence (Q8VIP2 1-865): T1 sequence (Q8VIP2 1-865)
In words: CRISPR/Cas9 engineered INS-1 cells. In kind it is cell-based. The note with it: high glucose and glucolipotoxic conditions.

In another series the test system is human TXNIP promoter. In words: luciferase reporter driven by the human TXNIP promoter in INS-1 cells. In kind it is cell-based, rat. The settings on record: 10 µM 43, 24 h.
For series [12], the target named is T2, ChREBPα/14-3-3β. The settings on record: fit of 2D titration with thermodynamic equilibrium model; compound 0–500 µM.
The test system of a further series is INS. In words: qPCR INS mRNA in human islets. Format: cell-based. The settings on record: 10 µM 43, 24 h.
The test system of series [13] is PDX1. In words: immunostaining PDX1 protein in dispersed islets. In kind it is cell-based, human. The settings on record: 48 h.
The test system of series [14] is ChREBPβ. In words: immunostaining c-term ChREBP. In kind it is cell-based, human. The note with it: 48 h.
The test system of a further series is NFATC1/14-3-3. In words: proximity ligation assay NFATC1 and pan 14-3-3. Format: cell-based, rat. The note with it: 10 μM 43; high (20 mM) glucose.
Series [15] concerns ChREBPβ. In words: qPCR ChREBPβ mRNA in human islets. Format: cell-based. The note with it: 10 µM 43, 24 h; high glucose or glucolipotoxicity.
Series [16] concerns primary human islets. In words: total insulin content. In kind it is cell-based.
Series [17] has as its system INS-1 cells. In words: ATP/ADP measurements. Format: cell-based, rat. The note with it: 10 μM 43; high (20 mM) glucose.
Another series concerns ALDH1A3. In words: qPCR ALDH1A3 mRNA in human islets. In kind it is cell-based.
Series [18] relates to primary human islets. In words: insulin secretion stimulation index in response to KCl. In kind it is cell-based. The settings on record: 30 mM KCl.
Series [19] has as its system β-cell maturity markers or glucose sensing and processing genes. In words: qPCR other β-cell maturity markers or glucose sensing and processing genes. The settings on record: 10 µM 43, 24 h. Format: cell-based, human.
For series [20], the system named is dispersed human islet cells. In words: β-cell death after adenoviral ChREBPβ overexpression or shRNA. Format: cell-based. The note with it: 10 μM 43.

By EC50 is commonly meant the concentration needed to bring the measured effect to its halfway point. Low values mean greater potency, high ones weaker potency. Usually Kd stands for a measure of binding affinity in units of concentration.

Consider `NC(=O)c1ncn([C@@H]2O[C@H](CO)[C@@H](O)[C@H]2O)c1N` [AICAR, reference compound], for which the “nuclear translocation of ChREBPα” value on ChREBPα (1 mM AICAR) is recorded as “translocation of ChREBPα is not blocked”.
Regarding `O=C(COc1ccccc1P(=O)(O)O)NCCc1ccc(OCc2ccccn2)cc1` [compound 9], on ChREBPα/14-3-3β [1], it took 7.6 ± 0.5 µM to reach a half-maximal effect (EC50) and the “stabilization of the ChREBPα/14-3-3 PPI, in words” value (“stabilization … in words” for short) is on record as “increased the stabilization efficiency”.
For `O=C(COc1ccccc1P(=O)(O)O)NCCc1ccc(OCc2cccnc2)cc1` [compound 10], the “stabilization … in words” value at ChREBPα/14-3-3β [1] is “increased the stabilization efficiency”.
Same read-out and setting: next, `O=C(COc1ccccc1P(=O)(O)O)NCCc1ccc(OCc2ccncc2)cc1` [compound 11]: “increased the stabilization efficiency”.
On to `O=C(NCCc1ccccc1)C(Oc1ccccc1P(=O)(O)O)c1ccccc1` (stereo not drawn) [compound 12], for which, at ChREBPα/14-3-3β [1], the “Active in biochemical assays” value is “not active in the biochemical assay”. Also, the Rescue from glucolipotoxicity result in the series with INS-1 cells [2] was “nor rescued the cells from glucolipotoxicity”. The “Cytotoxic in low [glucose]” value in the series with INS-1 cells [3] is “neither generally cytotoxic”.
For `O=C(COc1ccc(OP(=O)(O)O)cc1)NCCc1ccccc1` [compound 19], at ChREBPα/14-3-3β [1], the EC50 was 17.4 ± 3.2 µM.
Consider `O=C(COc1ccccc1B(O)O)NCCc1ccccc1` [compound 23], for which the “stabilization … in words” value on ChREBPα/14-3-3β [1] was “inactive”.
Still for that read-out and setting: the entry for `NS(=O)(=O)c1ccccc1OCC(=O)NCCc1ccccc1` [compound 24] is “inactive”.
Take `O=C(COc1ccccc1P(=O)(O)O)NCC(F)(F)c1cccc(F)c1` [compound 43]: the glucose-stimulated proliferation result with INS-1 cells [4] is reported as “prevented glucose-stimulated proliferation”. In addition, the “GSIS stimulation index, in words” value with primary human islets [5] is listed as “improved glucose-stimulated insulin secretion (GSIS) stimulation index (SI)”. The “PPI stabilization with 14-3-3 isoforms” value in series [6] was “PPI stabilization among all isoforms”. The “interaction between 14-3-3 and ChREBPα (PLA)” value with ChREBPα/14-3-3 was “remained unchanged”. Moreover, the “ChREBPα stabilization selectivity among 14-3-3 isoforms” value in series [7] was “preserved”. In addition, the “effect on other 14-3-3 client peptides (selectivity)” value in series [8] was “without affecting any other client peptide”. Moreover, the “β-cell death in glucolipotoxic conditions, in words” value with human islets, β-cells is “remarkable decrease in β-cell death”. Further, the “calcium upregulation in response to glucose” value in the series on INS-1 cells [9] was “no effect”. Binding at ChREBPα/14-3-3β [10] was put at a Kd of 162 µM. For the same compound, the “PDX1 mRNA downregulation (de-differentiation) in glucolipotoxicity” value in the series on PDX1 [11] is “this de-differentiation was prevented”. The “build up of nuclear ChREBPβ, in words” value at ChREBP is “prevents the built up of nuclear ChREBPβ”. The “glucose response of the TXNIP gene” value in the series on human TXNIP promoter is on record as “prevents the glucose response of the TXNIP gene”. Further, the “nuclear translocation of ChREBPα” value on ChREBPα (glucose + palmitate) is on record as “preventing ChREBPα’s nuclear translocation”; at ChREBPα (high glucose), “blocked the transient translocation of ChREBPα”. In addition, at ChREBPα/14-3-3β [12], the “cooperativity factor (α)” value came to 72. For the same compound, the “INS mRNA downregulation (de-differentiation) in glucolipotoxicity” value with INS is recorded as “this de-differentiation was prevented”. The “PDX1 protein levels in glucolipotoxicity” value in the series with PDX1 [13] was “rescued”. Also, the “Active in biochemical assays” value on ChREBPα/14-3-3β [1] is given as “active in biochemical assays”. Also, in the series on ChREBPβ [14], the “upregulation of ChREBPβ at protein level” value is “prevented upregulation of ChREBPβ”. For the same compound, the Rescue from glucolipotoxicity entry in the series with INS-1 cells [2] is given as “protected the β-cells from glucolipotoxicity”. In the series on INS-1 cells [2] (10 µM 43, kinetics over 72 h), the “glucolipotoxic cell death in INS-1 cells” value was “prevented”. In the series on INS-1 cells [2], the “cell death in glucolipotoxic conditions, dose response” value is reported as “significant attenuation of cell death”. Moreover, the “14-3-3 dissociation from NFATC1 (PLA)” value in the series on NFATC1/14-3-3 is listed as “glucose promoted 14-3-3 dissociation from NFATC1”. In addition, the “upregulation of ChREBPβ at mRNA level” value in the series with ChREBPβ [15] is “prevented upregulation of ChREBPβ”. Also, in the series with primary human islets [16], the insulin content result is “no effect”. In addition, the ATP/ADP ratio result in the series on INS-1 cells [17] is recorded as “enhanced mitochondrial activity”. Besides, the results for the “ALDH1A3 mRNA” value in the series on ALDH1A3 (high glucose or glucolipotoxicity) and with ALDH1A3 (low glucose) were “unaffected” and “significantly decreased”, respectively. Further, in the series with INS-1 cells [3], the “Cytotoxic in low [glucose]” value is “no cytotoxicity”. Moreover, the “SI in response to KCl” value with primary human islets [18] is “no effect”. Besides, the “other β-cell maturity markers or glucose sensing and processing genes” value in [19] is “unchanged”. For the same compound, in [20], the “protection from apoptosis due to overexpression of ChREBPβ” value is on record as “unable to protect human islet cells from apoptosis”.
As for `O=C(COc1ccccc1P(=O)(O)O)NCC(F)(F)c1ccc(F)c(F)c1` [compound 53], the “effect on other 14-3-3 client peptides (selectivity)” value in series [8] is “without affecting any other client peptide”. The “β-cell death in glucolipotoxic conditions, in words” value in the series with human islets, β-cells is on record as “remarkable decrease in β-cell death”. On ChREBPα/14-3-3β [10], this compound came in with a dissociation constant (Kd) of 110 µM. The “cooperativity factor (α)” value at ChREBPα/14-3-3β [12] is reported as 126. The “Active in biochemical assays” value at ChREBPα/14-3-3β [1] is given as “active in biochemical assays”. For the same compound, in the series on INS-1 cells [2], the Rescue from glucolipotoxicity entry is “protected the β-cells from glucolipotoxicity” and the “cell death in glucolipotoxic conditions, dose response” value is recorded as “significant attenuation of cell death”. For the same compound, in the series with INS-1 cells [3], the “Cytotoxic in low [glucose]” value is “no cytotoxicity”.
